Data: patent US8895585B2, “Nicotinamide derivative or salt thereof” (FUJIFILM Corporation, priority 2010, dated 2014)

What follows are compounds tested against T1, glutathione S-transferase (GST)-fused full-length human Syk protein (Homo sapiens, UniProt P43405) (assay: Syk enzyme assay). Details: Syk enzyme assay, Test Example 1; read-out: IC50 of Syk-inhibitory activity.
T1 construct: (GST)-fused full-length human Syk protein; GST (glutathione S-transferase); purchased Carna Biosciences
Format: biochemical
Outline: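 GST-tagged full-length human Syk (baculovirus) preincubated with compound 15 min at room temperature (pH 7.0, 10 mM MgCl2), then reacted 40 min with 0.4 μM biotinylated peptide substrate and 27 μM ATP (final). Phosphorylation read by HTRF (615/665 nm) after EDTA stop; IC50 reported.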

Row | Compound | IC50
1 | CCc1ncc(Nc2nc(N[C@@H]3CCCC[C@@H]3N)c(F)cc2C(N)=O)cc1Cl [Example 006-568, 6-(((1R,2S)-2-aminocyclohexyl)amino)-2-((5-chloro-6-ethylpyridin-3-yl)amino)-5-fluoronicotinamide] | 0.05 to 0.1 µM
2 | NC(=O)c1cc(F)c(N[C@@H]2CCCC[C@@H]2N)nc1Nc1cnc(C2CC2)c(Cl)c1 [Example 006-569, 6-(((1R,2S)-2-aminocyclohexyl)amino)-2-((5-chloro-6-cyclopropylpyridin-3-yl)amino)-5-fluoronicotinamide] | 0.01 to 0.05 µM
3 | CCOc1ncc(Nc2nc(N[C@@H]3CCCC[C@@H]3N)c(F)cc2C(N)=O)cc1Cl [Example 006-570, 6-(((1R,2S)-2-aminocyclohexyl)amino)-2-((5-chloro-6-ethoxypyridin-3-yl)amino)-5-fluoronicotinamide] | 0.01 to 0.05 µM
4 | COCCOc1ncc(Nc2nc(N[C@@H]3CCCC[C@@H]3N)c(F)cc2C(N)=O)cc1Cl [Example 006-571, 6-(((1R,2S)-2-aminocyclohexyl)amino)-2-((5-chloro-6-(2-methoxyethoxy)pyridin-3-yl)amino)-5-fluoronicotinamide] | 0.05 to 0.1 µM
5 | CCOc1ncc(Nc2nc(N[C@@H]3CCCC[C@@H]3N)c(F)cc2C(N)=O)cc1C1CC1 [Example 006-573, 6-(((1R,2S)-2-aminocyclohexyl)amino)-2-((5-cyclopropyl-6-ethoxypyridin-3-yl)amino)-5-fluoronicotinamide] | 0.01 to 0.05 µM
6 | COCCOc1ncc(Nc2nc(N[C@@H]3CCCC[C@@H]3N)c(F)cc2C(N)=O)cc1C1CC1 [Example 006-574, 6-(((1R,2S)-2-aminocyclohexyl)amino)-2-((5-cyclopropyl-6-(2-methoxyethoxy)pyridin-3-yl)amino)-5-fluoronicotinamide] | 0.01 to 0.05 µM
7 | Cc1nn(C)c2ccc(Nc3nc(N[C@H](C4CC4)[C@H](C)N)c(F)cc3C(N)=O)cc12 [Example 006-582, 6-(((1R,2S)-2-amino-1-cyclopropylpropyl)amino)-2-((1,3-dimethyl-1H-indazol-5-yl)amino)-5-fluoronicotinamide] | < 0.01 µM
8 | Cn1nc(-n2cccn2)c2cc(Nc3nc(N[C@@H]4CCCC[C@@H]4N)c(F)cc3C(N)=O)ccc21 [Example 006-594, 6-(((1R,2S)-2-aminocyclohexyl)amino)-5-fluoro-2-((1-methyl-3-(1H-pyrazol-1-yl)-1H-indazol-5-yl)amino)nicotinamide] | < 0.01 µM
9 | CC(C)C[C@@H](Nc1nc(Nc2ccc3c(c2)c(-n2cccn2)nn3C)c(C(N)=O)cc1F)[C@H](C)N [Example 006-595, 6-(((2S,3R)-2-amino-5-methylhexan-3-yl)amino)-5-fluoro-2-((1-methyl-3-(1H-pyrazol-1-yl)-1H-indazol-5-yl)amino)nicotinamide] | < 0.01 µM
10 | Cc1cc(C)cc(Nc2nc(NCCN)c(F)cc2C(N)=O)c1 [Example 008-002] | 0.01 to 0.05 µM
11 | Cc1ccccc1Nc1nc(NCCN)c(F)cc1C(N)=O [Example 008-003] | 0.1 to 1 µM
12 | NC(=O)c1cc(F)c(NC2CCCCC2N)nc1Nc1cnc2ccccc2c1 (centres unmarked) [Example 008-004] | < 0.01 µM
13 | NC(=O)c1cc(F)c(NC2CCCCC2N)nc1Nc1cccc(Cl)c1 (centres unmarked) [Example 008-008] | < 0.01 µM
14 | NC(=O)c1cc(F)c(NCc2ccc[nH]2)nc1Nc1ccc2ncccc2c1 [Example 012-003] | 0.1 to 1 µM
15 | NC(=O)c1cc(F)c(N[C@@H](C(N)=O)c2ccccc2)nc1Nc1ccc2ncsc2c1 [Example 012-004] | 0.01 to 0.05 µM
16 | NC(=O)c1cc(F)c(NC(Cc2ccccc2)C(N)=O)nc1Nc1ccc2ncsc2c1 (centres unmarked) [Example 012-006] | 0.01 to 0.05 µM
17 | NC(=O)c1cc(F)c(N[C@H](Cc2ccccc2)C(N)=O)nc1Nc1ccc2ncccc2c1 [Example 012-012] | 0.01 to 0.05 µM
18 | NC(=O)c1cc(F)c(NCCc2cnc[nH]2)nc1Nc1ccc2ncccc2c1 [Example 012-014] | 0.1 to 1 µM
19 | NC(=O)c1cc(F)c(NCc2cnc[nH]2)nc1Nc1ccc2ncccc2c1 [Example 012-015] | 0.05 to 0.1 µM
20 | NC(=O)c1cc(F)c(NCc2ccccn2)nc1Nc1ccc2ncccc2c1 [Example 012-016] | 0.1 to 1 µM
21 | NC(=O)c1cc(F)c(NCc2cccnc2)nc1Nc1ccc2ncccc2c1 [Example 012-017] | 0.1 to 1 µM
22 | NC(=O)c1cc(F)c(NCc2ccncc2)nc1Nc1ccc2ncccc2c1 [Example 012-018] | 0.1 to 1 µM
23 | NC(=O)CNc1nc(Nc2ccc3ncccc3c2)c(C(N)=O)cc1F [Example 012-019] | 0.05 to 0.1 µM
24 | NC(=O)c1cc(F)c(NCc2cnc[nH]2)nc1Nc1cnc2ccccc2c1 [Example 012-020] | 0.1 to 1 µM
25 | NC(=O)c1cc(F)c(NCCO)nc1Nc1ccc2ncccc2c1 [Example 012-021] | < 0.01 µM

Row | Compound | IC50
26 | CNc1nc(Nc2ccc3ncccc3c2)c(C(N)=O)cc1F [Example 012-022] | 0.1 to 1 µM
27 | NC(=O)c1cc(F)c(N[C@@H](CO)Cc2ccccc2)nc1Nc1ccc2ncccc2c1 [Example 012-023] | 0.1 to 1 µM
28 | NC(=O)c1cc(F)c(N[C@@H](CO)c2ccccc2)nc1Nc1ccc2ncccc2c1 [Example 012-024] | 0.1 to 1 µM
29 | NC(=O)c1cc(F)c(N[C@H](Cc2ccccc2)C(N)=O)nc1Nc1cnc2ccccc2c1 [Example 012-025] | 0.01 to 0.05 µM
30 | CC(C)C[C@@H](Nc1nc(Nc2ccc3ncccc3c2)c(C(N)=O)cc1F)c1nnn[nH]1 [Example 012-026] | 0.1 to 1 µM
31 | NC(=O)c1cc(F)c(NCc2cnn[nH]2)nc1Nc1ccc2ncccc2c1 [Example 012-027] | 0.05 to 0.1 µM
32 | NC(=O)c1cc(F)c(NCc2ncc[nH]2)nc1Nc1ccc2ncccc2c1 [Example 012-028] | 0.1 to 1 µM
33 | NC(=O)c1cc(F)c(N[C@H](Cc2ccccc2)c2ncc[nH]2)nc1Nc1ccc2ncccc2c1 [Example 012-029] | 0.1 to 1 µM
34 | CC(C)C[C@@H](Nc1nc(Nc2ccc3ncccc3c2)c(C(N)=O)cc1F)c1ncc[nH]1 [Example 012-030] | 0.1 to 1 µM
35 | CC(C)[C@@H](Nc1nc(Nc2ccc3ncccc3c2)c(C(N)=O)cc1F)C(N)=O [Example 012-032] | 0.05 to 0.1 µM
36 | NC(=O)c1cc(F)c(NC(Cc2ccc(F)cc2)C(N)=O)nc1Nc1ccc2ncccc2c1 (centres unmarked) [Example 012-033] | 0.01 to 0.05 µM
37 | COc1ccc(C[C@@H](Nc2nc(Nc3ccc4ncccc4c3)c(C(N)=O)cc2F)C(N)=O)cc1 [Example 012-034] | 0.1 to 1 µM
38 | NC(=O)c1cc(F)c(N[C@H](Cc2cnc[nH]2)C(N)=O)nc1Nc1ccc2ncccc2c1 [Example 012-035, (R)-6-((1-amino-3-(1H-imidazol-5-yl)-1-oxopropan-2-yl)amino)-5-fluoro-2-((quinolin-6-yl)amino)nicotinamide] | 0.1 to 1 µM
39 | CC(C)(C)[C@@H](Nc1nc(Nc2ccc3ncccc3c2)c(C(N)=O)cc1F)C(N)=O [Example 012-037] | 0.05 to 0.1 µM
40 | CCC[C@@H](Nc1nc(Nc2ccc3ncccc3c2)c(C(N)=O)cc1F)C(N)=O [Example 012-038] | 0.01 to 0.05 µM
41 | NC(=O)c1cc(F)c(NCC(N)Cc2ccccc2)nc1Nc1ccc2ncccc2c1 (centres unmarked) [Example 014-003] | 0.05 to 0.1 µM
42 | CCC(N)CNc1nc(Nc2ccc3ncccc3c2)c(C(N)=O)cc1F (centres unmarked) [Example 014-004] | 0.01 to 0.05 µM
43 | CC(C)(N)CNc1nc(Nc2ccc3ncccc3c2)c(C(N)=O)cc1F [Example 014-011, 6-((2-amino-2-methylpropyl)amino)-5-fluoro-2-((quinolin-6-yl)amino)nicotinamide] | 0.01 to 0.05 µM
44 | CC(C)(CN)Nc1nc(Nc2ccc3ncccc3c2)c(C(N)=O)cc1F [Example 014-012, 6-((1-amino-2-methylpropan-2-yl)amino)-5-fluoro-2-((quinolin-6-yl)amino)nicotinamide] | 0.05 to 0.1 µM
45 | CC(C)(C)[C@H](N)CNc1nc(Nc2ccc3ncccc3c2)c(C(N)=O)cc1F [Example 014-015, (S)-6-((2-amino-3,3-dimethylbutyl)amino)-5-fluoro-2-((quinolin-6-yl)amino)nicotinamide] | 0.05 to 0.1 µM
46 | NC(=O)c1cc(F)c(NC[C@@H](N)c2cccnc2)nc1Nc1ccc2ncccc2c1 [Example 014-018, (S)-6-((2-amino-2-(pyridin-3-yl)ethyl)amino)-5-fluoro-2-((quinolin-6-yl)amino)nicotinamide] | 0.01 to 0.05 µM
47 | NC(=O)c1cc(F)c(NCC2CCCCN2)nc1Nc1ccc2ncccc2c1 (centres unmarked) [Example 014-021] | 0.1 to 1 µM
48 | CCNc1nc(Nc2cc(OC)cc(OC)c2)c(C(N)=O)cc1F [Example 016-001] | 0.1 to 1 µM
49 | COc1cc(Nc2nc(NCC(N)=O)c(F)cc2C(N)=O)cc(OC)c1 [Example 016-005] | 0.1 to 1 µM
50 | COc1cc(Nc2nc(NCC3CC3)c(F)cc2C(N)=O)cc(OC)c1 [Example 016-008] | 0.1 to 1 µM

Same assay, conditions: read-out: Syk-inhibitory activity (IC50)

Row | Compound | IC50
51 | Cc1cc(C)cc(Nc2nc(NCCN)c(F)cc2C(N)=O)c1 [Example 8-2, 6-((2-aminoethyl)amino)-2-((3,5-dimethylphenyl)amino)-5-fluoro-nicotinamide] | ≤ 1 µM
52 | NC(=O)c1cc(F)c(N[C@H](Cc2ccccc2)C(N)=O)nc1Nc1cnc2ccccc2c1 [Example 12-25] | ≤ 1 µM
53 | NC(=O)c1cc(F)c(NCc2cnn[nH]2)nc1Nc1ccc2ncccc2c1 [Example 12-27, 5-fluoro-2-(quinolin-6-ylamino)-6-(((1H-1,2,3-triazol-5-yl)methyl)amino)nicotinamide] | ≤ 1 µM
54 | NC(=O)c1cc(F)c(NCc2ncc[nH]2)nc1Nc1ccc2ncccc2c1 [Example 12-28, 5-fluoro-6-(((1H-imidazol-2-yl)methyl)amino)-2-(quinolin-6-ylamino)nicotinamide] | ≤ 1 µM
55 | CCNc1nc(Nc2cc(OC)cc(OC)c2)c(C(N)=O)cc1F [Example 15, 2-(3,5-dimethoxyphenylamino)-6-(ethylamino)-5-fluoronicotinamide] | ≤ 1 µM
56 | COc1cc(Nc2nc(NCC3CC3)c(F)cc2C(N)=O)cc(OC)c1 [Example 16-8, 6-((cyclopropylmethyl)amino)-2-((3,5-dimethoxyphenyl)amino)-5-fluoronicotinamide] | ≤ 1 µM
